What was measured:
[1] = tested on: hair shafts (zigzag hairs) of skin samples transplanted in Balb/c nu/nu mice; test: Measurement of increase in hair diameter on hair shafts from Exemplary Test 1; type: in vivo
Description: Measurement of increase in hair diameter was carried out using hair shafts that had completed the second cycle at the foregoing Exemplary Test 1. Of the hair shafts that were collected, three zigzag hairs were used for measurement of increase in hair diameter. Three locations were selected in regions where diameter was large in the central portions thereof using a square […] on a side. For each of the selected regions, five different locations were further selected, and hair shaft diameter of the zigzag hairs thereat was measured to evaluate the degree to which increase in hair diameter had occurred.
Here, ** at FIG. 2 and TABLE 2 indicates p<0.01, i.e., that the results are significant.

[2] = tested on: human dermal papilla cells; test: Dermal papilla cell growth promotion (Cell Count Reagent SF absorbance); type: cell-based; conditions: 10.268375 to 328.588 μM
Description: Human dermal papilla cells (Catalog No. CA602t05a: derived from person: Toy obo Co., Ltd. (Japan)) were purchased, testing and evaluation being carried out with maintenance and culture of cells being performed as described in the protocol.
As drugs for testing, drug solutions consisting of culture medium for human dermal papilla cells containing palmitoyl dipeptide-5 diaminobutyloyl hydroxythreonine in the following respective concentrations (final concentrations) were prepared, and these were used. • Working Example 1: 10.268375 μM • Working Example 2: 20.53675 μM • Working Example 3: 41.0735 μM • Working Example 4: 82.147 μM • Working Example 5: 164.294 μM • Working Example 6: 328.588 μM
A 96-well plate was seeded with human dermal papilla cells so as to obtain 1×10^3 thereof per well. […] After this had been added thereto, absorbance (measurement wavelength 450 nm; reference wavelength 620 nm) of the culture supernatant was measured. Based on these values, the cell growth rates at the respective wells were calculated, at which time the cell growth rate of the control group at which nothing had been added was taken to be 100%.

[3] = tested on: skin samples derived from dorsal body hair skin transplanted in Balb/c nu/nu mice; test: Evaluation of hair growth activity: drug applied on skin samples from mouse dorsal body hair skin grafted onto Balb/c nu/nu mice; type: in vivo
Description: C57BL/6N mice (male) and Balb/c nu/nu mice (female) were purchased from Japan SLC, Inc.(Japan) and bred, and were thereafter made available for the following testing. Note that the testing and breeding of animals complied with pertinent laws, regulations, ordinances, and guidelines, and was performed with the approval of the Experimental Ethics Review Board of the Institute of Physical and Chemical Research.
The following reagents were respectively prepared. • Placebo: 60% aqueous ethanol solution • Working Example 1: 0.05% solution of palmitoyl dipeptide-5 diaminobutyloyl hydroxythreonine
To collect dorsal body hair skin in the form of anagen stage VI skin 12 to 14 days following depilation. C57BL/6N mice of age 7 to 8 weeks were depilated at locations where dorsal body hair skin was intended to be collected, and were bred for 12 to 14 days. The depilated C57BL/6N mice were thereafter euthanized by cervical dislocation, following which a suitable amount of dorsal body hair skin was collected from the locations at which dorsal body hair skin was intended to be collected.
The collected skin was immersed in DMEM culture medium (hereinafter “DMEM 10”) which contained 10 mM HEPES, 10% fetal bovine serum, and 1% penicillin/streptomycin solution. The collected dorsal body hair skin was grasped with bent-nose curved tweezers and was treated by immersion for 10 seconds in a sterilizing solution. Sterilization treatment was performed by carrying out treatment with 7% povidone iodine solution two times, treatment with PBS (−) three times, and treatment with DMEM 10 two times, in this order, with fresh solutions respectively being used each time. Following sterilization treatment, these were immersed in clean DMEM 10.
Following sterilization treatment, the dorsal body hair skin was cut into pieces and formed into blocks. The transparent connective tissue which adhered to the cutaneous muscle layer of the skin was excised therefrom using curved scissors, and hair groups were cut into rectangular strips in parallel fashion with respect to the direction of the wave of the hair. At this time, these were cut into blocks such that there were 6 rows of hair follicles along the long axis, adjustment having been carried out so that there were 5 rows of hair follicles along the short axis.
The skin samples derived from dorsal body hair skin that were prepared in accordance with the foregoing were grafted onto Balb/c nu/nu mice of age 4 to 6 weeks.
More specifically, mice were anesthetized in the usual way using isoflurane gas. The dorsal area of the mice was then disinfected using 7% povidone iodine solution, following which the mice were made to assume a naturally recumbent posture. In addition, a Mani ophthalmic knife (Mani, Inc.; Japan) was used to pierce the skin at the dorsal area of the mice, the grafts which were formed extending from the epidermal layer of the skin to the subdermal layer. The skin samples derived from dorsal body hair skin were inserted into the grafts formed thereat in such fashion as to cause the hair groups to be directed toward the body surface side of the grafts. Skin sample transplanted depth was adjusted so as to cause the top portion of the hair group to be in a state such that it was exposed at the top portion of the graft. To protect the grafts, Nurseban (registered trademark) (Sunplanet Co., Ltd.; Japan) and surgical tape (3M Japan Limited; Japan) were then used as protective tape to cover the grafts at which the skin samples derived from dorsal body hair skin had been transplanted. The protective tape was removed 5 to 7 days following transplantation, and survival of the transplanted skin samples derived from dorsal body hair skin was determined by visual inspection or digital microscopy (Keyence Corporation: Japan), after which follow-up observation was carried out.
For the first hair cycle, 60% aqueous ethanol solution was applied thereto as placebo. […]

FGF-7 gene = FGF-7 gene expression in human dermal papilla cells by real-time PCR; type: cell-based; conditions: 24 hours, FIG. 4
Description: Testing and evaluation were carried out with maintenance and culture of human dermal papilla cells being performed in the same manner as at Exemplary Test 3, above.
As drugs for testing, drug solutions of the following respective concentrations (final concentrations) were prepared and used. • Comparative Example 1: 100 μM adenosine • Working Example 1: 1 μM palmitoyl dipeptide-5 diaminobutyloyl hydroxythreonine • Working Example 2: 10 μM palmitoyl dipeptide-5 diaminobutyloyl hydroxythreonine • Working Example 3: 300 μM palmitoyl dipeptide-5 diaminobutyloyl hydroxythreonine
A 24-well plate was seeded with human dermal papilla cells so as to obtain 6×10^3 thereof per well. […]
Following culture, total RNA was extracted from the respective wells and was recovered, and this was reverse-transcribed into cDNA. […] The GAPDH gene was used as an internal standard, the amount of FGF-7 gene expression being calculated relative to the negative control group.
A FastGene RNA Basic Kit (Catalog No. FG-80250; Nippon Genetics Co., Ltd. (Japan)) was used to recover total RNA from cells. […] Concentration of the recovered RNA was measured using a NanoDrop Lite (Catalog No. ND-LITE; Thermo Fisher Scientific K.K.), and this was stored at −80° C. until the following cDNA creation procedure. […]

[4] = 0.05% solution applied topically to transplanted skin samples, second hair cycle
[5] = 0.05% solution, second hair cycle vs placebo applied in first hair cycle

Q: Which “Hair diameter as compared with 60% aqueous ethanol control (in words)” value ([1]; 0.05% solution) does the source give for “palmitoyl dipeptide-5 diaminobutyloyl hydroxythreonine” here?
A: The value was “clear increase in hair diameter”.

Q: And the “Hair shaft diameter, percent increase” value ([1]; second hair cycle vs placebo applied in first hair cycle)?
A: The value was 137%.

Q: What about the Hair shaft diameter ([1]; zigzag hairs after second hair cycle, 0.05% solution, p<0.01) of the same substance?
A: The Hair shaft diameter was 22.0 ± 1.6 ** μm.

Q: And the “Cell growth rate as compared with control group at which nothing had been added (in words)” value ([2]; 24, 48 or 72 hours, FIG. 3)?
A: The value was “increase in cell growth rate”.

Q: What about the “Concentration dependence of cell growth rate (in words)” value ([2]; within concentration domain tested) of the same substance?
A: The value was “increased in concentration-dependent fashion”.

Q: And the “Hair shaft elongation rate” value [3, 4]?
A: The value was 0.40 ± 0.08 mm/day.

Q: What about the “Maximum hair shaft length” value [3, 4] of the same substance?
A: Its value is 5.1 ± 0.3 mm.

Q: What about the “Hair shaft elongation rate, percent change relative to reference data” value [3, 5] of the same substance?
A: The value was 110.45%.

Q: And the “Maximum hair shaft length, percent change relative to reference data” value [3, 5]?
A: Its value is 103.27%.

Q: And the “Hair growth activity (in words)” value ([3]; solution containing 0.05%)?
A: Its value is “exhibit hair growth activity”.

Q: And the “Hair shaft elongation rate as compared with reference data (in words)” value ([3]; solution containing 0.05%)?
A: Its value is “significant improvement”.

Q: What about the “Maximum hair shaft length as compared with reference data (in words)” value ([3]; solution containing 0.05%) of the same substance?
A: The value was “significant improvement”.

Q: What about the “Amount of expression of FGF-7 gene as compared with control group (in words)” value (FGF-7 gene; 1 μM and 10 μM) of the same substance?
A: Its value is “increase in the amount of expression of the FGF-7 gene”.

Q: What about the “Amount of expression of FGF-7 gene compared with 100 μM adenosine (in words)” value (FGF-7 gene; increased amount added) of the same substance?
A: Its value is “greater than that which was produced as a result of action of adenosine”.

From patent US20230390356A1, “HAIR GROWTH AGENT” (ADJUVANT HOLDINGS CO., LTD., priority 2020, published 2023)
